In publication PMC12494099, “Discovery and Characterization of Novel IKZF1/3 Glue Degraders against Multiple Hematological Cancer Cell Lines” (Oncology Research, 2025):

Experiments:
Assay type in all cases: cell-based
[1] = system: control vector MV-4-11 cells; assay: Cell viability, control vector cells; details: Homo sapiens, MV4-11, 96 h
Method: (§1) Multiple cell lines (NCI-H929, OPM-2, U937, Ocl-Ly3, RPMI-8226, MOLM-13, Skm-1, MUTZ-1, SU-DHL-4, TMD8, U2932, WSU-DLCL-2, MV-4-11 and KG-1 cells) were plated into 96-well plates. The plated at a density of 15,000 cells per well, and each well contained 100 µL of medium. Subsequently, different compounds (MGD-AX, MGD-BX, MGD-CX) were added to each well. These compounds’ concentrations were set at 0, 0.01, 0.033, 0.1, 0.33, 1, 3.3, 10 and 33 μM, and the cells were incubated with the compounds for 96 h. To evaluate the antiproliferative effects of these compounds, the Cell Counting Kit-8 (CCK-8, #CX007, Epizyme, Shanghai, China) was used. All procedures were carried out in strict accordance with the manufacturer’s instructions (Dojindo Laboratories, Mamoto Ken, Japan). The half maximal inhibitory concentrations (IC50) values, which represent the concentrations of the test compounds that can inhibit 50% of cell activity, were calculated using GraphPad Prism 8.0 (GraphPad Software Inc., San Diego, CA, USA).
(§2) […] NCI-H929 and MV-4-11 cells were seeded at a density of 1 × 10^6 cells/well in 6-well tissue culture-treated plates. According to the manufacturer’s protocol (Santa Cruz Biotechnology, Inc, Dallas, TX, USA), CRBN CRISPR/Cas9 knockout Plasmid (#sc-412142), CRBN HDR plasmid (#sc-412142-HDR), UltraCruz® Transfection Reagent (#sc-395739) were pre-mixed in Plasmid Transfection Medium (#sc-108062) at a 1:1:2 mass ratio, and cells were transiently transfected in a 37°C, 5% CO2 incubator. After 72 h of infection, the medium was replaced with complete medium containing 3 μg/mL puromycin for 5–7 days. On day 7, GFP-positive cells were sorted as single cells into 96-well plates. Isolated single-cell clones were screened via western blot analysis, using wild-type NCI-H929 or MV-4-11 cells as positive controls.

[2] = system: control vector NCI-H929 cells; assay: Cell viability, control vector cells; details: Homo sapiens, NCI-H929, 96 h
Method: as §1, §2

U937 = assay: Cell viability (CCK-8) assay; details: Homo sapiens, U-937; AML, 96 h; read-out: IC50 (μM) U937
Method: (§3) The plated at a density of 15,000 cells per well, and each well contained 100 µL of medium. Subsequently, different compounds (MGD-AX, MGD-BX, MGD-CX) were added to each well. […] To evaluate the antiproliferative effects of these compounds, the Cell Counting Kit-8 (CCK-8, #CX007, Epizyme, Shanghai, China) was used. All procedures were carried out in strict accordance with the manufacturer’s instructions (Dojindo Laboratories, Mamoto Ken, Japan).

MOLM-13 = assay: Cell viability (CCK-8) assay; details: Homo sapiens, MOLM-13; AML, 96 h; read-out: IC50 (μM) MOLM-13
Method: as §3

RPMI-8226 = assay: Cell viability (CCK-8) assay; details: Homo sapiens, RPMI-8226; MM, 96 h; read-out: IC50 (μM) RPMI-8226
Method: as §3

WSU-DLCL-2 = assay: Cell viability (CCK-8) assay; details: Homo sapiens, WSUDLCL2; DLBCL, 96 h; read-out: IC50 (μM) WSU-DLCL-2
Method: as §3

MV-4-11 = assay: Cell viability (CCK-8) assay; details: for IC50: Homo sapiens, MV4-11, 96 h, 96 h, CCK-8
Method: as §3

KG-1 = assay: Cell viability (CCK-8) assay; details: Homo sapiens, KG-1; AML, 96 h; read-out: IC50 (μM) KG-1
Method: as §3

U2932 = assay: Cell viability (CCK-8) assay; details: Homo sapiens, U2932; DLBCL, 96 h; read-out: IC50 (μM) U2932
Method: as §3

OPM-2 = assay: Cell viability (CCK-8) assay; details: Homo sapiens, OPM-2; MM, 96 h; read-out: IC50 (μM) OPM-2
Method: as §3

MUTZ-1 = assay: Cell viability (CCK-8) assay; details: AML, 96 h; read-out: IC50 (μM) MUTZ-1
Method: as §3

NCI-H929 = assay: Cell viability (CCK-8) assay; details: Homo sapiens, NCI-H929, 96 h
Method: as §3

Ocl-Ly3 = assay: Cell viability (CCK-8) assay; details: for IC50: 96 h, CCK-8
Method: as §3

Skm-1 = assay: Cell viability (CCK-8) assay; details: Homo sapiens, SKM-1; AML, 96 h; read-out: IC50 (μM) Skm-1
Method: as §3

SU-DHL-4 = assay: Cell viability (CCK-8) assay; details: Homo sapiens, SU-DHL-4; DLBCL, 96 h; read-out: IC50 (μM) SU-DHL-4
Method: as §3

TMD8 = assay: Cell viability (CCK-8) assay; details: Homo sapiens, TMD8; DLBCL, 96 h; read-out: IC50 (μM) TMD8
Method: as §3

CRBN^−/− MV-4-11 cells = assay: Cell viability, CRBN knockout cells; details: Homo sapiens, MV4-11, 96 h
Method: as §1, §2

CRBN^−/− NCI-H929 cells = assay: Cell viability, CRBN knockout cells; details: Homo sapiens, NCI-H929, 96 h
Method: as §1, §2

IC50 [1] [nM]	IC50 [2] [nM]	IC50 (U937) [µM]	IC50 (MOLM-13) [µM]	IC50 (RPMI-8226) [µM]	IC50 (MV-4-11) [µM]	IC50 (NCI-H929) [µM]	IC50 (SU-DHL-4) [µM]	IC50 (CRBN^−/− MV-4-11 cells) [nM]	IC50 (CRBN^−/− NCI-H929 cells) [nM]	SMILES	IC50 (WSU-DLCL-2) [µM]	IC50 (KG-1) [µM]	IC50 (U2932) [µM]	IC50 (OPM-2) [µM]	IC50 (MUTZ-1) [µM]	IC50 (Ocl-Ly3) [µM]	IC50 (Skm-1) [µM]	IC50 (TMD8) [µM]	fold higher antiproliferative activity than avadomide (MV-4-11; MV-4-11 cells)	times stronger antiproliferative activity than avadomide (Ocl-Ly3; Ocl-Ly3 cells)
676	638	3.83	19.3	2.11	0.59 ± 0.07	0.67 ± 0.1	10.3	> 33000	> 33000	CN1CCN(Cc2cccc(C(=O)NC3CCC(=O)NC3=O)c2)CC1 (centres unmarked) [MGD-A7, N-(2,6-dioxopiperidin-3-yl)-3-((4-methylpiperazin-1-yl)methyl)benzamide]	3.82	1.24	3.34	0.153	13.2	2.32 ± 0.22	4.03	6.77		
198	313	1.24	9.11	1.23	0.21 ± 0.02	0.26 ± 0.03	7.37	> 33000	> 33000	CN1CCN(Cc2cccc(C(=O)NC3CCC(=O)NC3=O)c2F)C(=O)C1 (centres unmarked) [MGD-C9, N-(2,6-dioxopiperidin-3-yl)-2-fluoro-3-((4-methyl-2-oxopiperazin-1-yl)methyl)benzamide]	2.24	0.33	1.25	0.0845	10.5	0.81 ± 0.09	2.03	5.03	approximately 4 fold	approximately 20 times
